Here are results for three compounds from patent publication US20050095281A1, “Liposomal formulations and methods of use” (OPTIME Therapeutics, Inc., priority 2003, published 2005).

For one data set, the system named is Lactobacillus. Conditions: previously shown; cited from earlier work.
Data set [1] relates to human cervical epithelium. As to the kind of experiment: Histological evaluation of excised human cervical tissue ex vivo (Franz diffusion cell). Conditions: 2% polysorbate 80 (data not shown).

Turning to `CCCOC(=O)c1ccc(O)cc1` [propylparaben], the “toxicity of preservatives to Lactobacillus” value in the data set with Lactobacillus was “nontoxic”.

For `COC(=O)c1ccc(O)cc1` [methylparaben], the “toxicity of preservatives to Lactobacillus” value in the data set on Lactobacillus is given as “nontoxic”.

Consider polysorbate 80, for which the “histological changes in human cervical epithelium” value in data set [1] is “Severe shedding of the epithelial layers”.
